Tests used:
[1] = per os administration; cited from earlier work
[2] = Expected serum concentration after intranasal nalmefene spray (10 mg/ml solution, 0.1 ml per spray); type: in vivo, human
Experimental: A tartrate, stearate or palmitate formulation of nalmefene may be used, or nalmefene may be in the form of nalmefene hydrochloride, and formulated such that 1 gram of active nalmefene is mixed with 80 ml of distilled water, then adjusted to a pH of approximately 7.4 with dilute sodium hydroxide, and then isotonic saline is added along with a suitable preservative and antibacterial agent, to yield a total volume of 100 ml. This yields a nalmefene solution with a concentration of 10 mg/ml nalmefene. This final solution is passed through a 0.2 micron Millipor filter to remove bacteria and other undesired particles. The filtered solution is then placed aseptically into a container to which is then attached a metered dosing mechanism which allows approximately 0.1 ml to be delivered in each spray. An example of such a metered dosing system in found with the commercially marketed Stadol NS® (Bristol-Myers Squibb Co.). One spray to one nostril may be expected to yield a blood serum concentration of approximately 1 ng/ml 30-90 minutes after administration. […] Alternatively, the human may be given a loading dose of intravenous nalmefene and then transferred to a nasal administration regimen. A practical dosing schedule for nalmefene may be 1.5 mg intranasally every 12 hours. […]

[3] = cited from earlier work
kappa-receptor = kappa-receptor (Homo sapiens, UniProt P41145); settings: Kreek et al.; cited from earlier work
kappa-receptor, sequence (P41145 whole entry): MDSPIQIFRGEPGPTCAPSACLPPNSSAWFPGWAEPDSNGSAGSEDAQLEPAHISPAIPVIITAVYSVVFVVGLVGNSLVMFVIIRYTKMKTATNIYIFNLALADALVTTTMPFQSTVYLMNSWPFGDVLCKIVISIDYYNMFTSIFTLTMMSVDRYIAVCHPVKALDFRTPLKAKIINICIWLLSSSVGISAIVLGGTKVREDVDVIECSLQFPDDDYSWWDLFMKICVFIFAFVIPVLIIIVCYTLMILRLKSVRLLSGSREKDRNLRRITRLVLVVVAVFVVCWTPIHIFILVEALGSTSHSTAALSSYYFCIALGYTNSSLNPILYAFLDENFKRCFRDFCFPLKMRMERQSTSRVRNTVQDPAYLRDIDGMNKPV

[4] = biological target: intraspinal kappa receptors (Rattus norvegicus, UniProt P34975); settings: after spinal cord injury; Bakshi et al.; cited from earlier work
intraspinal kappa receptors, sequence (P34975 whole entry): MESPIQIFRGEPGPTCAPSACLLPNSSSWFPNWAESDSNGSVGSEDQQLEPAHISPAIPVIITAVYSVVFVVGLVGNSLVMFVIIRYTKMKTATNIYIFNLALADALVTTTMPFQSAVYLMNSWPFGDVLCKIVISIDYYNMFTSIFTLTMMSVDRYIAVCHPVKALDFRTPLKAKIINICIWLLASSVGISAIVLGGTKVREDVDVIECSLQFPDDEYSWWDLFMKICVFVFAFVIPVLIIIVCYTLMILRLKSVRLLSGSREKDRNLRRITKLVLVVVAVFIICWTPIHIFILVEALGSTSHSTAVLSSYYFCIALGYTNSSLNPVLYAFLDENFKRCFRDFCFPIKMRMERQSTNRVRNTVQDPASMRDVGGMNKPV

[5] = single dose after acute spinal cord injury; Behrmann et al.; cited from earlier work

Row | SMILES | first pass metabolism [1] | steady state serum concentration ([2]; 5 consecutive 1 mg intranasal doses approximately 11 hours apart) | blood serum concentration after one spray ([2]; one 0.1 ml spray of 10 mg/ml solution to one nostril, 30-90 minutes after administration) | average volume of distribution (Vd) ([3]; approximate average in non-elderly adult humans) [L/kg] | serum half life ([3]; in vivo) | elimination constant (Ke) ([3]; value furnished by a distributor of nalmefene) [h⁻¹] | potency as kappa-receptor antagonist compared with other antagonists (kappa-receptor) | effect on dynorphin induced motor dysfunction [4] | effect on neurological recovery / neuroprotection [5]
1 | O=C1CC[C@@]2(O)[C@H]3Cc4ccc(O)c5c4[C@@]2(CCN3CC2CC2)[C@H]1O5 [naltrexone] | very significant first pass metabolism | – | – | – | – | – | – | – | –
2 | C=C1CC[C@@]2(O)[C@H]3Cc4ccc(O)c5c4[C@@]2(CCN3CC2CC2)[C@H]1O5 [nalmefene] | very significant first pass metabolism | approximately 1 ng/ml | approximately 1 ng/ml | ~8.6 | approximately 10.8 hours | 0.0642 | more potent than either naloxone or naltrexone | limits dynorphin induced motor dysfunction | significant neuroprotective effect
